Source: patent US6268395A, “Phorbol derivatives having antivirus activity” (Lead Chemical Co., Ltd., priority 1999, dated 2001)
Values joined by “and” are separate entries in the source; they are usually repeats but may differ in a detail not shown here. Equal entries are not always repeated. “Also recorded” adds a separate entry of the source. Where two headings read alike, the source gives them in different places.

Columns and labels:
[1] = Cell growth / viability of MT-4 cells (cytotoxicity); assay type: cell-based; settings: human, day 5, read-out: CC0 (concentration that reduces viability of MT-4 cells; minimum cytotoxic concentration)
Experimental: (§1) In the experiments, MT-4 cells were used. The cells were incubated at 37° C. under 5% CO2 in RPMI-1640 medium (FCS, Flow laboratories, North Ryde, Australia) supplemented with 100 μg/mL of streptomycin (Meiji Seika, Tokyo, Japan), and 100 U/mL of penicillin G (Banyu Pharmaceutical, Tokyo, Japan).
(§2) The inhibitory effect of test compounds on HIV-1-induced cytopathogenicity was measured by the method of Harada, Koyanagi & Yamamoto (1985). MT-4 cells were infected for 1 hour with HIV-1 (at TCID50 of 0.001/well) and non-adsorbed virus was removed by washing. Then, the cells were resuspended in RPMI-1640 medium at a concentration of 1.5×10^5 cells/mL. A 200 μL/well of the cell suspension was cultured for 5 days in days in a 96-well culture plate containing various concentrations (12 doses, maximum 1,000 μg/mL and minimum […]) of the test compounds. Control assays were performed in the absence of test compounds with HIV-1-infected and uninfected cultures. On day 5, the IC100 of the test compound required for completely preventing HIV-1-induced CPE(IC) was determined through an optical microscope and the cell growth was examined to give the CC0 that reduces the viability of MT-4 cells.

protein kinase C (PKC) = assay type: biochemical, mouse; settings: for % Activity of PKC: relative to TPA positive control; for activation of PKC (in words): concentration not given; for PKC activation, positive control: TPA, lipid and calcium chloride present
Experimental: After addition of 0.55 nM [γ-^32 P] ATP (50×10^3 cpm/nmol), the reaction mixture was mixed and allowed to be kept at 37° C. for 30 minutes. Then the reactions were terminated by the addition of 10 μl of ice-cold stop reagent. Aliquots of 35 μL were transferred to the center of peptide binding discs. After 10 minutes, the discs were washed two times with 75 mM orthophosphoric acid. The activity of ^32 P-labeled samples was counted in 10/mL of a scintillation fluid for 1 minute. […] Blank (in the absence of PKC) and control (in the absence of TPA or tested samples) were also carried out. One unit of PKC was defined as that amount of enzyme, which incorporated 1 nmol of phosphate from ATP into its substrate, peptide, per minute under the assay conditions, described above.

HIV-1 = assay: Inhibition of HIV-1-induced cytopathic effect (CPE) in MT-4 cells; assay type: cell-based, HIV-1 (LAV-1) in human MT-4 cells; settings: for CPE inhibitory effect (in words): HIV-1; for anti-HIV-1 activity: at concentrations up to 500 μg/mL; for IC100: Human immunodeficiency virus 1, MT4, 120 h; for r = CC0/IC100: 7200 min
Experimental: as §1
HIV-1 was obtained from culture supernatant of MOLT-4 cells that had been persistently infected with LAV-1.
j) Assay of cytopathic effect(CPE) of HIV-1 in MT-4 cells
as §2
A variety of phorbol esters and related compounds were tested for their ability to inhibit the replication and infectivity of HIV-1 in MT-4 cells, a human CD4-positive cell line continually infected with HTLV-1, and the results are presented in Table 3.

P-388 leukemia = P-388 leukemia in mice; cited from earlier work
HIV = settings: cited from earlier work
[2] = 10 ng/mL (standard concentration)
[3] = MT-4 cells, 5 days, NE: Not effective, read-out: Anti-HIV-1 IC100 (complete prevention of HIV-1-induced CPE)
[4] = MT-4 cells, read-out: IC100 (complete inhibition of CPE)

Which MCC at 120 h [1] does the source give for `CC1=C[C@H]2[C@@]3(O)[C@H](C)[C@@H](O)[C@]4(O)[C@H]([C@@H]3C=C(CO)C[C@]2(O)C1=O)C4(C)C` [Compound 9, Phorbol] here?
Its MCC at 120 h is 1000 µg/mL.

And the “% Activity of PKC” value (protein kinase C (PKC); 10 ng/mL)?
The value was 8%.

And the “% Activity of PKC” value (protein kinase C (PKC); 2.7 μg/mL)?
The value was 39%.

What about the “activation of PKC (in words)” value (protein kinase C (PKC)) of the same compound?
The value was “weak activators of PKC”.

And the “CPE inhibitory effect (in words)” value (HIV-1; MT-4 cells)?
The value was “did not show CPE inhibitory effect; also recorded: showed no effect”.

What about the anti-HIV-1 activity (HIV-1) of the same compound?
The anti-HIV-1 activity was “did not show anti-HIV-1 activity”.

For `CC(=O)OCC1=C[C@H]2[C@@H]3C(C)(C)[C@]3(OC(C)=O)[C@H](OC(C)=O)[C@@H](C)[C@]2(O)[C@@H]2C=C(C)C(=O)[C@@]2(O)C1` [Compound 11, Phorbol-12,13,20-triacetate], which MCC at 120 h [1] is on record?
The MCC at 120 h was 125 µg/mL.

What about the “PKC activation (in words)” value (protein kinase C (PKC); [2]) of the same compound?
Its value is “did not activate PKC”.

And the “% Activity of PKC” value (protein kinase C (PKC); 10 ng/mL)?
Its value is 0%.

And the “% Activity of PKC” value (protein kinase C (PKC); 2.7 μg/mL)?
Its value is 15%.

And the IC100 (HIV-1; [3])?
Its IC100 is 62.5 µg/mL.

What about the “r = CC0/IC100” value (HIV-1; MT-4 cells) of the same compound?
Its value is 2.00.

Which results are given for `C/C=C(\C)C(=O)O[C@@H]1[C@@H](C)[C@@]2(O)[C@@H](C=C(CO)C[C@]3(O)C(=O)C(C)=C[C@@H]23)[C@@H]2C(C)(C)[C@]12OC(=O)C(C)CC` (stereo partly drawn) [Compound 5, 12-O-Tigioylphorbol-13-(2-methylbutyrate)]?
MCC at 120 h [1]: 62.5 µg/mL; % Activity of PKC (protein kinase C (PKC); 10 ng/mL): 10%; % Activity of PKC (protein kinase C (PKC); 2.7 μg/mL): 40%; activation of PKC (in words) (protein kinase C (PKC)): weak activation of PKC; IC100 (HIV-1; [3]): 31.3 µg/mL; CPE inhibitory effect (in words) (HIV-1; MT-4 cells): weak inhibitory effects against CPE; r = CC0/IC100 (HIV-1; MT-4 cells): 2.00

Which results are given for `CCCCCCCCCC(=O)O[C@@H]1[C@@H](C)[C@@]2(O)[C@@H](C=C(CO)C[C@]3(O)C(=O)C(C)=C[C@@H]23)[C@@H]2C(C)(C)[C@]12OC(=O)C(C)CC` (stereo partly drawn) [Compound 4, 12-O-Decanoylphorbol-13-(2-methylbutyrate)]?
MCC at 120 h [1]: 31.3 µg/mL; PKC activation (in words) (protein kinase C (PKC); 10 ng to 2.7 μg/mL): no activation; % Activity of PKC (protein kinase C (PKC); 10 ng/mL): 0%; % Activity of PKC (protein kinase C (PKC); 2.7 μg/mL): 0%; activation of PKC (in words) (protein kinase C (PKC)): did not show any activation of PKC; IC100 (HIV-1; [3]): 7.81 µg/mL; Anti-HIV-1 IC100 (complete prevention of HIV-1-induced CPE) (HIV-1; MT-4 cells, 5 days, NE: Not effective): 7.8 µg/mL; r = CC0/IC100 (HIV-1; MT-4 cells): 4.01

Which results are given for `CCCC(=O)OCC1=C[C@H]2[C@@H]3C(C)(C)[C@]3(OC(=O)CCC)[C@H](OC(=O)CCC)[C@@H](C)[C@]2(O)[C@@H]2C=C(C)C(=O)[C@]2(O)C1` [Compound 22, 4α-Phorbol-12,13,20-tributyrate]?
MCC at 120 h [1]: 62.5 µg/mL; PKC activation (in words) (protein kinase C (PKC); 10 ng to 2.7 μg/mL): no activation; % Activity of PKC (protein kinase C (PKC); 10 ng/mL): 0%; % Activity of PKC (protein kinase C (PKC); 2.7 μg/mL): 0%; CPE inhibitory effect (in words) (HIV-1; MT-4 cells): showed no effect; anti-HIV-1 activity (HIV-1): did not show anti-HIV-1 activity

Which results are given for `C/C=C(\C)C(=O)O[C@@]12[C@H](OC(C)=O)[C@@H](C)[C@@]3(O)[C@@H](C=C(CO)C[C@]4(O)C(=O)C(C)=C[C@@H]34)[C@@H]1C2(C)C` [Compound 3, 12-O-Acetylphorbol-13-tigliate]?
MCC at 120 h [1]: 500 µg/mL; % Activity of PKC (protein kinase C (PKC); 10 ng/mL): 16%; % Activity of PKC (protein kinase C (PKC); 2.7 μg/mL): 30%; activation of PKC (in words) (protein kinase C (PKC)): weak activation of PKC; IC100 (HIV-1; [3]): 125 µg/mL; CPE inhibitory effect (in words) (HIV-1; MT-4 cells): weak inhibitory effects against CPE; r = CC0/IC100 (HIV-1; MT-4 cells): 4.00

Which MCC at 120 h [1] does the source give for `CCCCC/C=C\C/C=C\CCCCCCCC(=O)OCC1=C[C@H]2[C@@H]3C(C)(C)[C@]3(OC(C)=O)[C@H](O)[C@@H](C)[C@]2(O)[C@@H]2C=C(C)C(=O)[C@@]2(O)C1` [Compound 1, 13-O-Acetylphorbol-20-(9Z,12Z-octadecadienoate)] here?
Its MCC at 120 h is 62.5 µg/mL.

And the “PKC activation (in words)” value (protein kinase C (PKC); [2])?
The value was “did not activate PKC”.

And the “% Activity of PKC” value (protein kinase C (PKC); 10 ng/mL)?
Its value is 0%.

And the IC100 (HIV-1; [3])?
Its IC100 is 15.6 µg/mL.

And the “r = CC0/IC100” value (HIV-1; MT-4 cells)?
Its value is 4.01.

What does the source list for `CCCCCCCCCC(=O)O[C@@]12[C@H](OC(C)=O)[C@@H](C)[C@@]3(O)[C@@H](C=C(CO)C[C@]4(O)C(=O)C(C)=C[C@@H]34)[C@@H]1C2(C)C` [Compound 6, 12-O-Acetylphorbol-13-decanoate]?
MCC at 120 h [1]: 62.5 µg/mL; % Activity of PKC (protein kinase C (PKC); 10 ng/mL): 0%; PKC activation (in words) (protein kinase C (PKC); 100 ng/mL): No activation of PKC was observed; % Activity of PKC (protein kinase C (PKC); 2.7 μg/mL): 17%; PKC activation (in words) (protein kinase C (PKC); 10 to 100 ng/mL): no activation; also recorded: did not activate PKC; IC100 (HIV-1; [3]): 0.0076 µg/mL; IC100 (HIV-1; [4]): 0.0076 µg/mL; r = CC0/IC100 (HIV-1; MT-4 cells): 8220

For `CC1=C[C@H]2[C@@]3(O)[C@H](C)[C@@H](OC(=O)c4ccccc4)[C@]4(OC(=O)c5ccccc5)[C@H]([C@@H]3C=C(COC(=O)c3ccccc3)C[C@]2(O)C1=O)C4(C)C` [Compound 12, Phorbol-12,13,20-tribenzoate], which MCC at 120 h [1] is on record?
Its MCC at 120 h is 31.3 µg/mL.

What about the “% Activity of PKC” value (protein kinase C (PKC); 2.7 μg/mL) of the same compound?
The value was 100%.

What about the “activation of PKC (in words)” value (protein kinase C (PKC)) of the same compound?
The value was “enhanced the activation of PKC”.

And the “CPE inhibitory effect (in words)” value (HIV-1; MT-4 cells)?
Its value is “showed no effect”.

What about the anti-HIV-1 activity (HIV-1) of the same compound?
The anti-HIV-1 activity was “did not show anti-HIV-1 activity”.

For `C/C=C(\C)C(=O)O[C@@H]1[C@@H](C)[C@@]2(O)[C@@H](C=C(CO)C[C@]3(O)C(=O)C(C)=C[C@@H]23)[C@@H]2C(C)(C)[C@]12OC(=O)CCCCCCCCC` [12-O-tigloylphorbol-13-decanoate], which antileukemic activity (P-388 leukemia) is on record?
The antileukemic activity was “demonstrated antileukemic activity”.

Which MCC at 120 h [1] does the source give for `CC(=O)OCC1=C[C@H]2[C@@H]3C(C)(C)[C@]3(OC(C)=O)[C@H](OC(C)=O)[C@@H](C)[C@]2(O)[C@@H]2C=C(C)C(=O)[C@]2(O)C1` [Compound 21, 4α-Phorbol-12,13,20-triacetate] here?
Its MCC at 120 h is 500 µg/mL.

What about the “% Activity of PKC” value (protein kinase C (PKC); 10 ng/mL) of the same compound?
Its value is 0%.

What about the “% Activity of PKC” value (protein kinase C (PKC); 2.7 μg/mL) of the same compound?
Its value is 39%.

What about the “PKC activation (in words)” value (protein kinase C (PKC); high concentrations) of the same compound?
The value was “enhanced activation of PKC”.

What about the IC100 (HIV-1; [3]) of the same compound?
Its IC100 is 250 µg/mL.

What about the “r = CC0/IC100” value (HIV-1; MT-4 cells) of the same compound?
The value was 2.00.

What does the source list for `CCCCCCCCCCCCCC(=O)O[C@@H]1[C@@H](C)[C@@]2(O)[C@@H](C=C(CO)C[C@]3(O)C(=O)C(C)=C[C@@H]23)[C@@H]2C(C)(C)[C@]12OC(C)=O` [Compound 8, reference compound]?
MCC at 120 h [1]: 31.3 µg/mL; % Activity of PKC (protein kinase C (PKC); 10 ng/mL): 96% and ~100%; % Activity of PKC (protein kinase C (PKC); 2.7 μg/mL): 98% and ~100%; PKC activation, positive control (protein kinase C (PKC)): 100%; PKC activation, positive control (protein kinase C (PKC); represents 100%): 8400 nmol/mg/min; IC100 (HIV-1; [3]): 0.00048 µg/mL; IC100 (HIV-1; [4]): 0.00048 µg/mL; CPE inhibitory effect (in words) (HIV-1; MT-4 cells): equipotent; r = CC0/IC100 (HIV-1; MT-4 cells): 65200

Which anti-HIV activity (HIV) does the source give for `CC(=O)O[C@@]12C[C@@H](C)[C@@]3(O)[C@@H](C=C(CO)C[C@]4(O)C(=O)C(C)=C[C@@H]34)[C@@H]1C2(C)C` [12-Deoxyphorbol-13-acetate] here?
The anti-HIV activity was “having an anti-HIV activity”.
